# Measured values: a melting point compilation (Tetko et al.; mined from patent text by program, amines drawn as free bases though some values may be those of a salt)
row,SMILES,melting point [°C]
1,COc1nc(C)cc2nc(S(=O)(=O)Nc3nn(C)c4ccccc34)nn12,181 to 183
2,CCOC(=O)C1=C(C)NC(c2ncc[nH]2)=NC1c1ccccc1Cl (stereo not drawn),121 to 125
3,Cc1oc(-c2ccccc2)nc1CCC(=O)c1ccc(C=C2SC(=O)NC2=O)nc1,228 to 230
4,O=C(Nc1ccc(Oc2ccc(C(F)(F)F)cc2)cc1)Nc1nonc1-c1ccc(Cl)cc1,208
5,COc1ccc(Cc2nc3c(O)cccc3o2)cc1OC1CCCC1,172 to 181
6,CC(=O)c1cc(C(N)=O)cs1,156 to 158
7,Cc1ncc(CCCOc2c(C)cc(C#N)cc2C)s1,64 to 66
8,CCCNC(=O)c1cc2ccc(OC)cc2n1CCNC(C)=O,127 to 128
9,O=C(O)CN1C(=O)C=CC1=O,110
10,O=[N+]([O-])c1cccc(/C=C/c2nc(C3CCCCC3)cs2)c1,102 to 104
11,c1ccc(CN2CCC(=C3c4ccsc4CCn4ccnc43)CC2)cc1,178
12,CN1CCCNC(=O)C1,91
13,CCCNC(=O)C1(CCCCN2CCC(NC(=O)OC(C)(C)C)CC2)c2ccccc2-c2ccccc21,118 to 120
14,COc1ccccc1N1CCN(CCCCNc2cc(Cl)nnc2OC)CC1,139 to 150
15,NC(=O)N(O)Cc1cscc1Br,134 to 136
16,COc1cc2c(cc1OCc1ccccc1)CCN(Cc1cccc(OC)c1OC)C2,106 to 107
17,Cc1nc(NC(=O)c2cccc(C#N)c2)sc1C(=O)NCc1ccccc1,207 to 208
18,Cc1ccccc1-c1noc2c3c(c(Cl)cc12)OC(C(=O)O)C3 (stereo not drawn),192 to 195
19,O=C(Nc1ccc(Cl)cc1)Oc1ccc2c(c1)NCCC2,118
20,C=C(C)OC(=O)N1c2nc(C)ccc2NC(=S)C1C (racemic),120 to 121
21,Clc1ccc(Nc2nnc(Cc3ccncc3)c3ccccc23)cc1Cl,249 to 250
22,CC(C)(C)NC(=O)c1ccc(N2CCN(c3ccncc3)CC2)cc1,214 to 217
23,COC(=O)c1ncncc1OC,75
24,O=c1ccc(Oc2ccc([N+](=O)[O-])cc2)c[nH]1,214 to 217
25,CNc1ccc([N+](=O)[O-])cc1C(F)(F)F,99 to 101
26,COC(=O)/C=C/c1ccc(CC(C)NCC(O)c2cccc(F)c2)cc1 (stereo not drawn),75 to 110

row,SMILES,melting point [°C]
1,NS(=O)(=O)c1ccc(CCI)cc1,227
2,O=[N+]([O-])c1ccc2c(c1)C(c1ccccc1)=NCC(OP(=O)(N1CCOCC1)N1CCOCC1)=N2,208 to 209
3,Cc1c(CC(=O)O)oc2ccc(C(C)(C)C)cc12,169 to 170
4,CCOC(=O)c1c(Cn2cncn2)nc2sc3ccncc3c2c1-c1ccc(OC)c(OC)c1,166 to 167
5,CN(C)Cc1cccc2nc3n(c12)CCCN3c1ccc(Cl)cc1Cl,158 to 159
6,CCOC(=S)NCCN1CCC(Nc2nc3ccccc3n2Cc2ccc(F)cc2)CC1,149
7,Cc1cc(C(=O)Nc2cc(Oc3ccc4nc(NC(=O)C5CC5)cn4n3)ccc2F)n(C)n1,237
8,CC(C)c1cccc(C(C)C)c1NC(=O)CSCCCCCCCCCBr,85 to 86
9,CCCCCCc1cc2c(s1)NC(=O)C(C)N=C2c1ccccc1C (stereo not drawn),173 to 175
10,CC(=O)N(Cc1ccccc1)c1c(F)c(F)cc(F)c1C(=O)O,150 to 153
11,CN(C)C1CCc2[nH]c3cccc(Cl)c3c2C1 (stereo not drawn),212 to 214
12,CS(=O)(=O)NC(=O)c1cccc([N+](=O)[O-])c1,175 to 178
13,COc1ncnc(OC)c1NC(N)=S,210
14,COc1cc2c(cc1OC)C1Cc3cc(OC)c(OC(C)=O)cc3CN1CC2 (stereo not drawn),162 to 164
15,O=C(Nc1ccccc1)c1cc([N+](=O)[O-])ccc1Cl,155 to 156
16,OC(CNC1CCC1)c1cc(C(F)(F)F)nc2c(C(F)(F)F)cccc12 (stereo not drawn),145
17,COc1ccc(Cl)c(Cc2c(Cl)nc(N3CCOCC3)nc2NS(=O)(=O)c2ccc(C(C)(C)C)cc2)c1,159 to 162
18,O=C(CCCCC1(C(=O)O)CCC1)CCCCC1(C(=O)O)CCC1,69 to 70
19,C[C@H]1[C@H](N(C)C)CN1c1cc2c(cc1F)c(=O)c(C(=O)O)cn2C1CC1 (relative stereo),181 to 185
20,CCOC(=O)c1cn(N)c2c(F)c(F)c(F)cc2c1=O,217
21,CC1(C)CCC(=O)CC1S(=O)(=O)c1ccccc1 (stereo not drawn),84 to 86
22,COC(=O)c1cc2ccc(Cl)cc2n1CC#N,177 to 178
23,CCOC(=O)c1c(CN2CCOCC2)nc2cc(OC)c(OC)cc2c1-c1ccc(OC)cc1,165 to 166
24,CCCC(=O)Cc1ccc(C(=O)Nc2ccc3cc(CN4CCN(C)CC4)cnc3c2C)cc1,177
25,COCCOC(=O)c1cc(C(=O)NOC)c(O)c2ncc(Cc3ccc(F)cc3)cc12,166 to 168
26,O=C(CCC1c2ccccc2-c2ccccc21)Nc1ccc(C(=O)O)c(O)c1,225 to 228

row,SMILES,melting point [°C]
1,COc1ccc(CCCc2ccc(O)cc2)c(O)c1,95 to 96
2,O=c1cc(-c2ccccc2)c2c(O)cc(O)cc2o1,179 to 182
3,c1ccc(C(N=C2CCCCC2)c2ccccc2)cc1,71 to 72
4,CC(=O)CCN(CCNC(=O)OC(C)(C)C)c1nc2cc(Cl)ccc2o1,145 to 148
5,CC1CNCc2c1[nH]c1cnc3cc(Cl)ccc3c21 (stereo not drawn),286 to 287
6,CC(C)(C)OC(=O)Nc1ccc(C#Cc2ccccc2)cc1NC(=O)CC(=O)c1cccc([N+](=O)[O-])c1,177 to 179
7,COc1cc(N2CCCN(C3CCN(CCO)CC3)CC2)ccc1Nc1ncc2ccc(-c3ccccc3OC)n2n1,77 to 94
8,COc1cc(C)nc(NC(=O)NS(=O)(=O)c2ccccc2OC(F)(F)F)n1,162
9,CN1C(=O)C(N)C(c2ccccc2)=Nc2ccccc21 (stereo not drawn),178 to 179
10,O=C1NCCc2c(NCc3ccccc3)cccc21,142 to 144
11,COCc1cnc2c(NC(=O)c3c(Cl)cccc3Cl)cccc2c1CO,199 to 200
12,COC(=O)C1=C(C)NC(CO)=C(C(=O)OC)C1c1ccccc1C#N (stereo not drawn),177 to 178
13,O=C(O)C1=CN(C2CC2)C(c2ccc3c(c2)OCO3)CC1=O (stereo not drawn),122 to 124
14,CC(=O)SC1CN(C(=O)OCc2ccccc2)C1,94.5 to 95.5
15,OCCCNc1ccc2ncnn2n1,193 to 194
16,CCC(CC)n1c(=O)sc2c(=O)[nH]c(N)nc21,> 232
17,CCSc1nccc(C)c1N,37 to 38
18,CC(=O)c1nnc2n1-c1sc(Cl)cc1C(c1ccccc1Cl)=NC2,89 to 91
19,CC(C)(C)c1cc(-n2nc3ccc(S(=O)(=O)c4ccc5nn(-c6cc(C(C)(C)C)cc(C(C)(C)C)c6O)nc5c4)cc3n2)c(O)c(C(C)(C)C)c1,> 300
20,CSC[C@H](NCc1cc(Br)ccc1N)C(=O)O,228
21,Cc1cc(Br)cnc1CCCCNC1=NS(=O)(=O)c2cc([N+](=O)[O-])ccc21,235 to 242
22,CCOCCc1ccc(OCCNc2ncnc(C)c2Cl)c(C)c1,57 to 58
23,COC(=O)C(O)c1ccccc1[N+](=O)[O-] (stereo not drawn),69 to 71
24,Cc1ccc(C2c3c(cc(C)c(Br)c3C)OC2(C)C)cc1 (stereo not drawn),116 to 118
25,CCOC(=O)C1=C(C)NC(=S)N(C(=O)OCC)C1c1cccc(C(F)(F)F)c1 (stereo not drawn),98 to 100
26,CN(C)C(=O)C(O)(C(=O)O)c1ccc(Cl)c(Cl)c1 (stereo not drawn),158 to 160

row,SMILES,melting point [°C]
1,O=C(N=C1CCCN1Cc1ccccc1)Nc1cccc(Cl)c1,91 to 93
2,Cc1nnc2ccc(-c3cccc(NC(=O)C4CCC4)c3)nn12,242 to 245
3,COc1cc2c(cc1OC)C1Cc3cc4c(cc3CC(=O)N1CC2)OCO4 (stereo not drawn),207 to 209
4,Cn1c(COc2ccc(CC3SC(=O)NC3=O)cc2)nc2ccc(Oc3ccc(NC(=O)Nc4ccccc4)cc3)cc21 (stereo not drawn),164 to 168
5,CC(C)(C)c1cc(C(=O)c2ccc(N)cc2)cc(C(C)(C)C)c1O,164 to 166
6,CCn1c(=O)c2[nH]c(/C=C/c3ccc(O)cc3)nc2n(CC)c1=O,> 270
7,FC(F)(F)Oc1cccc(CN2CCC(Nc3nnc(C(F)(F)F)s3)CC2)c1,116
8,CC(C=CC=C(C)C=CC1=C(C)C(=O)CCC1(C)C)=CC=CC=C(C)C=CC=C(C)C=CC1=C(C)C(=O)CCC1(C)C,205 to 207
9,O=C1CSC=C(c2ccccc2)N1,150 to 155
10,COc1ccc(NC=C2C(=O)OC(=O)c3cc4cccc(C)c4nc32)cc1OC,280 to 281
11,Cc1sc2c(c1C)C(C1CCCCC1)=NCC(=O)N2,205
12,Cc1ccc(N2CCCN(c3ccnc4sc(C(N)=O)c(N)c34)CC2)cc1F,79 to 83
13,Cc1ccc(S(=O)(=O)OCCc2ccccc2Br)cc1,39 to 39.5
14,C=C(C)COc1cc(C)c(NC(C)=O)cc1C,128 to 132
15,Cc1ccc(-c2ccc3c(c2)C=C(C(=O)NC2CCN(CC4=CCCCCCCC4)CC2)CCO3)cc1,128 to 130
16,CCc1cc2c(s1)-n1c(C)nnc1C(CCCCC(=O)O)N=C2c1ccc(Cl)cc1 (stereo not drawn),257 to 260
17,COC(=O)c1ccc(O)c(I)c1,145 to 146
18,CCCCCCN(O)CCCCCC,67
19,CCOC(=S)c1[nH]c(C)nc1C(C)(C)O,128 to 129
20,O=c1ncc(Br)cn1CSc1ccc(F)cc1,206
21,O=C(O)c1ccc(CCCc2ccc(Br)cc2OCc2ccccc2)cc1,141 to 142
22,OCC1OC(n2cnc3c(Nc4ccccc4)ccnc32)C(O)C1O (stereo not drawn),189
23,O=C(N[C@H]1CC[C@H](CCN2CCN(c3nccc4c3CCO4)CC2)CC1)c1ccccc1,208
24,CCCCNCCC(=O)Nc1ccc2c(c1)C(=O)c1cc(NC(=O)CCNCCCC)ccc1C2=O,168
25,CCOC(=O)C(C)c1ccc(CC2CCCCC2=NO)cc1 (stereo not drawn),102 to 104
